From patent publication US12590066B2, “Fused-heterocyclyl-carbonohydrazonoyl dicyanide compounds and use thereof” (KOREA INSTITUTE OF SCIENCE AND TECHNOLOGY, priority 2020, dated 2026)

Legend:
Format in all cases: in vitro ADME
[1] = Liver microsome stability; conditions: 1 μM compound, 37° C., 30 minutes, NADPH; for Dog (%) amount of substrate remaining after the reaction: dog liver microsomes 0.25 mg/mL; for Human (%) amount of substrate remaining after the reaction: human liver microsomes 0.25 mg/mL; for Mouse (%) amount of substrate remaining after the reaction: mouse liver microsomes 0.25 mg/mL; for Rat (%) amount of substrate remaining after the reaction: rat liver microsomes 0.25 mg/mL
Method: The stability of liver microsomes due to the compounds prepared according to Examples 1 to 57 was confirmed. Specifically, four types of liver microsomes (human, dog, rat, and mouse, each 0.25 mg/mL), a 0.1 M phosphate buffer solution (pH 7.4), and each of the compounds at a concentration of 1 μM were mixed and pre-cultured at 37° C. for 5 minutes and further cultured at 37° C. for 30 minutes together with an NADPH generation system solution added thereto. Thereafter, the reaction was terminated by adding an acetonitrile solution containing an internal standard material (chloropropamide) and centrifuged for 5 minutes (14,000 rpm, 4° C.), and then a supernatant was injected into an LC-MS/MS system for analysis of substrate drugs to thereby evaluate metabolic stability due to 8 types of compounds.
The amount of the substrate remaining after the reaction was analyzed using the Shimadzu Nexera XR system and TSQ Vantage (Thermo). In an HPLC column, Kinetex XB-C18 (2.1 mm×100 mm, particle size of 2.6 μm; Phenomenex, USA) was used, and mobile phases were (A) distilled water containing 0.1% formic acid and (B) acetonitrile containing 0.1% formic acid. Analyst software (version 1.6.3) and Xcalibur (version 1.6.1) were used for data analysis.

[2] = target: T1, CYP2D6 (Homo sapiens, UniProt P10635); assay: Inhibitory effect on CYP coenzyme activity, human liver microsomes; conditions: 10 μM compound, human liver microsomes 0.25 mg/mL, substrate dextromethorphan, 15 minutes
T1 construct: human liver microsomes (0.25 mg/mL); from tissue; host or cells: human liver microsomes
Outline: (§1)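 Compounds, tested at 10 μM, were incubated with human liver microsomes and a substrate cocktail including phenacetin, diclofenac, S-mephenytoin and dextromethorphan in phosphate buffer at pH 7.4 and 37 °C. Results are percent of control CYP activity.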

[3] = target: T2, CYP1A2 (Homo sapiens, UniProt P05177); assay: as above; conditions: 10 μM compound, human liver microsomes 0.25 mg/mL, substrate phenacetin, 15 minutes
T2 construct: human liver microsomes (0.25 mg/mL); from tissue; host or cells: human liver microsomes
T2 sequence (P05177 1-516): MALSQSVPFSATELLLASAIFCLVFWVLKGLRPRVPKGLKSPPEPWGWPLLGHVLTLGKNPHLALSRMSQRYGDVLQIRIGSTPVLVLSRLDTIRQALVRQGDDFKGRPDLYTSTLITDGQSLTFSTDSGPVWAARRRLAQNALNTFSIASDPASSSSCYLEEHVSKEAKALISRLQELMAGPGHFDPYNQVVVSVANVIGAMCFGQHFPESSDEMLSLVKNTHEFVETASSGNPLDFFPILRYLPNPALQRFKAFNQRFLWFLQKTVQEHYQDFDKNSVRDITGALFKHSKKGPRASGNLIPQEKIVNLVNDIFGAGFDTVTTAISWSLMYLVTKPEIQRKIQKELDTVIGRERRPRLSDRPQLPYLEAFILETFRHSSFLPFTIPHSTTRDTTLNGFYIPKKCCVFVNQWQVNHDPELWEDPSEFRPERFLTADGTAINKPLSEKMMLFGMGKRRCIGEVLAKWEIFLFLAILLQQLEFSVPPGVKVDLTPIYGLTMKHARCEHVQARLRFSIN
Outline: as §1

[4] = target: T3, CYP2C9 (Homo sapiens, UniProt P11712); assay: as above; conditions: 10 μM compound, human liver microsomes 0.25 mg/mL, substrate diclofenac, 15 minutes
T3 construct: human liver microsomes (0.25 mg/mL); from tissue; host or cells: human liver microsomes
Outline: as §1

[5] = target: T4, CYP2C19 (Homo sapiens, UniProt P33261); assay: as above; conditions: 10 μM compound, human liver microsomes 0.25 mg/mL, substrate S-mephenytoin, 15 minutes
T4 construct: human liver microsomes (0.25 mg/mL); from tissue; host or cells: human liver microsomes
Outline: as §1

[6] = target: T5, CYP3A4 (Homo sapiens, UniProt P08684); assay: as above; conditions: 10 μM compound, human liver microsomes 0.25 mg/mL, substrate midazolam, 15 minutes
T5 construct: human liver microsomes (0.25 mg/mL); from tissue; host or cells: human liver microsomes
Outline: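 Cocktail inhibition: HLM 0.25 mg/mL, 0.1 M PO4 pH 7.4, 37 °C; 5 min preinc., then 15 min + NADPH regen.; cpd 10 μM; probes phenacetin/diclofenac/S-mephenytoin/dextromethorphan/midazolam at 50/10/100/5/2.5 μM; LC-MS/MS MRM; % remaining activity vs no-compound control.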

T4 sequence (P33261 whole entry): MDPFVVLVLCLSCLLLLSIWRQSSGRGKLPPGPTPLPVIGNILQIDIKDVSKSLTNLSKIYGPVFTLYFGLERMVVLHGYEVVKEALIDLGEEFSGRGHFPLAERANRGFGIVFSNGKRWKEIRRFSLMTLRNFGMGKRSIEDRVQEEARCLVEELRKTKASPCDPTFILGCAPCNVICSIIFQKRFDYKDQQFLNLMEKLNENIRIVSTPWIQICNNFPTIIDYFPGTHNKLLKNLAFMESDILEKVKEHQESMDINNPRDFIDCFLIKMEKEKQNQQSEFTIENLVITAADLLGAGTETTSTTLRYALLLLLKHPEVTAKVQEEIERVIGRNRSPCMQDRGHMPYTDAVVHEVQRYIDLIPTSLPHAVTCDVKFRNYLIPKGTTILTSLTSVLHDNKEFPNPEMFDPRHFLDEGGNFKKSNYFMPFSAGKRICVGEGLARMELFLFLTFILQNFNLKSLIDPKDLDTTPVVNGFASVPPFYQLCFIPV
T5 sequence (P08684 whole entry): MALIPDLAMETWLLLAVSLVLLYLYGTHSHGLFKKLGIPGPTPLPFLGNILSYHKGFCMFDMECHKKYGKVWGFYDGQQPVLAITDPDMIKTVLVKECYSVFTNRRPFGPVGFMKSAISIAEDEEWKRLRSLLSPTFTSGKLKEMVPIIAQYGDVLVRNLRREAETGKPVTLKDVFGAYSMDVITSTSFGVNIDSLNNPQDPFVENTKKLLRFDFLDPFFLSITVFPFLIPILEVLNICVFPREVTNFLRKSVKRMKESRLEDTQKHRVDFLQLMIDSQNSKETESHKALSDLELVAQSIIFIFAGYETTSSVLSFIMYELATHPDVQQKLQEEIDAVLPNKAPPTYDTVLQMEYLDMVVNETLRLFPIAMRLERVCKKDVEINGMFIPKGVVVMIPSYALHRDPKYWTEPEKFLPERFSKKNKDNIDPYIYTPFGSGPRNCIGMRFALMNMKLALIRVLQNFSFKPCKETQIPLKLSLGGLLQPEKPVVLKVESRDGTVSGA
T1 sequence (P10635 whole entry): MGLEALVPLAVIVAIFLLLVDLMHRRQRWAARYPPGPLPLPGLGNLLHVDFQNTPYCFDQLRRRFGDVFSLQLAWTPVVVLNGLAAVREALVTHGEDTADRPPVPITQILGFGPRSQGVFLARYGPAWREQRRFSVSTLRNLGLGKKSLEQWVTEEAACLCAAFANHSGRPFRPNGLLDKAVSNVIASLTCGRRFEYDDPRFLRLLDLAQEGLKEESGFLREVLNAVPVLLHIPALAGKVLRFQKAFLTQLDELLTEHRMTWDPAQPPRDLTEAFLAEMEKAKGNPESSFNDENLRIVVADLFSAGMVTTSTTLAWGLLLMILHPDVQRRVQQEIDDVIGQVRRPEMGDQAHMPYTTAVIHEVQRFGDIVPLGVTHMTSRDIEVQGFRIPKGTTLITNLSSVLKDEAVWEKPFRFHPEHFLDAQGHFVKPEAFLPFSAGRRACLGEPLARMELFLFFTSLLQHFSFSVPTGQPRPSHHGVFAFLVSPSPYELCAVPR
T3 sequence (P11712 whole entry): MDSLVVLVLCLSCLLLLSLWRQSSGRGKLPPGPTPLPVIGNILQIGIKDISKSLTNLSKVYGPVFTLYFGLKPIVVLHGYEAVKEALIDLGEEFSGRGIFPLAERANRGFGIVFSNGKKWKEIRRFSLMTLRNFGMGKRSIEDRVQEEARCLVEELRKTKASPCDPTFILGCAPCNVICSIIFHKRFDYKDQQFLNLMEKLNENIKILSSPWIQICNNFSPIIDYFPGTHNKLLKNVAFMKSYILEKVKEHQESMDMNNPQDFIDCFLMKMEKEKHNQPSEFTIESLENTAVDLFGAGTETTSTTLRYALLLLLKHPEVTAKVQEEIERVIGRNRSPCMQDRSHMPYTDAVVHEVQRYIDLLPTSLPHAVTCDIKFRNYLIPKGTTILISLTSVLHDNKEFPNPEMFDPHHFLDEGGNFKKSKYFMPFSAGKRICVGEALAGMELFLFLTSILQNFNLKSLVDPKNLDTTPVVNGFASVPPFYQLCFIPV

Structure (SMILES) | Dog (%) amount of substrate remaining after the reaction [1] | Human (%) amount of substrate remaining after the reaction [1] | Mouse (%) amount of substrate remaining after the reaction [1] | Rat (%) amount of substrate remaining after the reaction [1] | CYP2D6 coenzyme activity (%) with respect to control group not treated [2] | CYP1A2 coenzyme activity (%) with respect to control group not treated [3] | CYP2C9 coenzyme activity (%) with respect to control group not treated [4] | CYP2C19 coenzyme activity (%) with respect to control group not treated [5] | CYP3A4 coenzyme activity (%) with respect to control group not treated [6]
N#CC(C#N)=NNc1ccc2[nH]c(=O)oc2c1 [Compound 15, (2-oxo-2,3-dihydrobenzo[d]oxazol-6-yl)carbonohydrazonoyl dicyanide] | 97.1% | 74.2% | >100% | 92.5% | >100% | 87.3% | 59.4% | 90.3% | 98.3%
Cn1c(=O)n(C)c2ncc(NN=C(C#N)C#N)cc21 [Compound 12, (1,3-dimethyl-2-oxo-2,3-dihydro-1H-imidazo[4,5-b]pyridin-6-yl)carbonohydrazonoyl dicyanide] | >100% | >100% | >100% | 94.9% | >100% | 99.6% | 93.4% | 92.2% | >100%
COc1cc(NN=C(C#N)C#N)cc2c1n(C)c(=O)n2C [Compound 33, (7-methoxy-1,3-dimethyl-2-oxo-2,3-dihydro-1H-benzo[d]imidazol-5-yl)carbonohydrazonoyl dicyanide] | – | 93.2% | 78.7% | 85.5% | >100% | 37.8% | 69.9% | >100% | 97.6%
CCn1c(=O)n(C)c2ccc(NN=C(C#N)C#N)cc21 [Compound 35, (3-ethyl-1-methyl-2-oxo-2,3-dihydro-1H-benzo[d]imidazol-5-yl)carbonohydrazonoyl dicyanide] | – | 98.7% | 87.1% | 86% | >100% | 93.1% | 72.5% | 100% | >100%
CC(C)n1c(=O)n(C(F)F)c2cc(NN=C(C#N)C#N)ccc21 [Compound 43, (3-(difluoromethyl)-1-isopropyl-2-oxo-2,3-dihydro-1H-benzo[d]imidazol-5-yl)carbonohydrazonoyl dicyanide] | – | 81.5% | 58.6% | 86.2% | 82.2% | 61.7% | 14.1% | 60.2% | 72.6%
Cn1c(=O)[nH]c2cc(NN=C(C#N)C#N)ccc21 [Compound 17, (1-methyl-2-oxo-2,3-dihydro-1H-benzo[d]imidazol-5-yl)carbonohydrazonoyl dicyanide] | >100% | >100% | 95.7% | >100% | 87.1% | 32.1% | 81.2% | 80.4% | 89%
CC(C)n1c(=O)oc2ccc(NN=C(C#N)C#N)cc21 [Compound 29, (3-isopropyl-2-oxo-2,3-dihydrobenzo[d]oxazol-5-yl)carbonohydrazonoyl dicyanide] | – | >100% | 88.9% | 96.4% | 94.2% | 97.3% | 4.7% | 91.3% | >100%
CC(C)n1c(=O)n(C2CC2)c2ccc(NN=C(C#N)C#N)cc21 [Compound 42, (1-cyclopropyl-3-isopropyl-2-oxo-2,3-dihydro-1H-benzo[d]imidazol-5-yl)carbonohydrazonoyl dicyanide] | – | 81.7% | 63.4% | 78.7% | >100% | 91.9% | 59.6% | >100% | 93.5%
Cn1c(=O)sc2cc(NN=C(C#N)C#N)ccc21 [Compound 14, (3-methyl-2-oxo-2,3-dihydrobenzo[d]thiazol-6-yl)carbonohydrazonoyl dicyanide] | 73.3% | 98.3% | 59.6% | 87.1% | 85.6% | 81.6% | 19.5% | 68.8% | 91.2%
N#CC(C#N)=NNc1ccc2[nH]c(=O)sc2c1 [Compound 13, (2-oxo-2,3-dihydrobenzo[d]thiazol-6-yl)carbonohydrazonoyl dicyanide] | >100% | >100% | >100% | >100% | 99.4% | 79% | 23.3% | 55.2% | 92.7%
